Laboratory results published in patent US20250127774A1, “COMPOUNDS FOR LABELLING NUCLEIC ACID AND USES THEREOF” (THE ROYAL INSTITUTION FOR THE ADVANCEMENT OF …, priority 2022, published 2025).

Columns and labels:
[1] = Photophysical measurements (quantum yield) of PINK and PINK-VdU-ox; assay type: physicochemical; settings: excitation 488 nm, Rhodamine 6G standard; PINK in aqueous and aprotic solvents, 6 depending on the solvent used
Procedure: PINK (4) undergoes a highly fluorogenic and regioselective IEDDA reaction with VdU (5) to give “PINK-VdU-ox” (6) as a single isomer in a 76% isolated yield after 7d at 60° C. (Scheme 1). The slow rate of this non-templated reaction (Kapp=0.01 M^−1 s^−1, FIG. 5) is due to the combination of an unstrained terminal alkene and unactivated tetrazine.^[49] Over the course of the reaction, a ˜100-fold increase in fluorescence was observed (FIG. 3, c). With a quantum yield (φF)<0.2%, PINK (4) is essentially non-fluorescent in both aqueous and aprotic solvents (FIG. 6).
Highly viscous solvents, including glycerol and polyethylene glycol (PEG 200) induced higher fluorescence of 6, likely by restricting bond rotation and thus suppressing formation of a non-emissive, twisted intramolecular charge transfer (TICT) state.^[50]
Photophysical Measurements. Stock solutions (1-10 mM) of investigated compounds were prepared in DMSO and stored at −20° C. DMSO concentrations were less than 1% after dilution into the respective solvent/aqueous buffer. Measurements were collected on a SpectraMax M5 plate reader (Molecular Devices, Sunnyvale, CA, USA) in 1 cm path-length quartz cuvettes. Quantum yields were obtained by excitation at 488 nm using Rhodamine 6G ((=0.94) in EtOH (n=1.3624) as a fluorescent standard.^[1] Quantum yields were calculated using the equation I: […]

[2] = tested on: VdU-labeled DNA in living Hela cells; assay: Live-cell metabolic labeling, PINK staining kinetics; assay type: cell-based
Procedure: To evaluate the ability of PINK to enter live cells and undergo fluorogenic reactions with vinyl groups in native chromatin, Hela cells were grown in rich media containing 10 μM VdU for 15 h and subsequently stained with 1-2 μM PINK for 4 h. Total cellular DNA was counterstained with Hoechst […] (5 μM; 405 nm laser; emission 410-480 nm) for 10 minutes prior to imaging PINK (514 nm laser; emission 570-700 nm). Control (ctrl) samples were treated with PINK but not VdU. All cells were treated and maintained in DMEM media containing 10% FBS and grown in 5% CO2 at 37° C. Live cell images were acquired using a confocal microscope.
The intracellular reaction kinetics of PINK staining was next investigated. Cells were seeded at a concentration of 2.5×10^4 cells/mL, allowed to settle overnight, and incubated with 100 μM VdU for 24 h. Cells were stained with 10 μM PINK between 10 min and 25 h, co-stained with Hoechst 33342 (5 μg/mL), and images were acquired on a confocal microscope. Samples were optimized for an ideal signal to noise ratio after staining for 1 h, illustrating a sufficiently bright signal at this stage. Ctrl samples were exposed to PINK for 25 h, thus explaining the relatively high background. […] Labeling was efficient in multiple cell lines. U2OS cells were seeded in μ-slide 8-well (Ibidi®) (3.0×10^4 cells in 200 μL; 1.5×10^5 cells/mL) in DMEM and given 20 h to settle. Cells were aspirated and VdU (0-100 μM in 200 μL DMEM) was added. Cells were incubated for 18 h, aspirated, and PINK (5 μM in 200 μL DMEM, 0.05% DMSO) was added. Cells were incubated for 5 h, aspirated, and Hoechst 33342 (2 μg/mL in 200 μL DMEM) was added for 15 min. Cells were aspirated and the media was exchanged for 200 μL DMEM (-Phenol Red). Images were acquired on a confocal microscope (FIG. 11). […] Cells (5.0×10^4 cells/mL) were seeded and allowed to settle overnight. Cells were incubated with 20 μM VdU for 16 h and stained with 2 μM PINK for 5 h, Cells were aspirated and fresh media (w/o Phenol Red) was added. Control Samples received identical treatment, but were not exposed to VdU. […]

MOLM-13 cells = assay: Resazurin combination toxicity assay; assay type: cell-based, human; settings: Homo sapiens, MOLM-13, MOLM-13; variable VdU/VdA alone or with 1 μM PINK added 24 h post nucleoside addition; read-out: IC50 value (48 h) for sequential addition
Procedure: From the single toxicity experiment, it was determined that the optimal subtoxic concentration of PINK to be used for the combination toxicity assays would be 1 μM. To test how effective the vinyl-nucleosides (VdU/VdA) in combination with PINK are at killing the cells compared to the vinyl-nucleosides alone, another resazurin reduction assay was carried out.
Resazurin Combination toxicity assays. MV4-11, MOLM-13 and Jurkat cells were seeded in 96-well plates at a density of 20 000 cells/well, 25 000 cells/well and 30 000 cells/well, respectively, in triplicates. For the sequential addition, the cells were first treated with the nucleosides (VdU/VdA) diluted in fresh media in 1:4 serial dilutions (˜0.01% DMSO) at concentrations of 500-0 μM, and incubated overnight. 24h post nucleoside addition, the cells were treated with 1 μM PINK diluted in fresh media (˜1% DMSO), and incubated for 24-72h. The cells were treated with resazurin, incubated and measured, as described above. For the simultaneous addition, the cells were treated with nucleosides and PINK on the same day at the same concentrations as describes above, and incubated for 24-72h.

[3] = 100 μM VdU 24 h, then 10 μM PINK

Row | Structure (SMILES) | quantum yield (φF) [1] [%] | retention of fluorescent signal in living cells ([2]; 20 μM VdU 16 h, 2 μM PINK 5 h, fresh media, t=0, 24 h) | incubation time after which a clear signal above background is observed [2, 3] [h] | staining duration ideal to achieve complete labeling [2, 3] [h] | IC50 (MOLM-13 cells) [µM]
1 | Cc1nnc(-c2ccc3cc4ccc(N(C)C)cc4nc3c2)nn1 [PINK] | < 0.2 | retained in living cells 24 h after being removed from the media | 1 | 5 | 
2 | C=Cc1cn([C@H]2C[C@H](O)[C@@H](CO)O2)c(=O)[nH]c1=O [VdU, 5-vinyl-2′-deoxyuridine] |  |  |  |  | 18
